# Measured values taken from patent publication US20090155218A1, “COMPOSITIONS AND METHODS FOR GROWTH OF EMBRYONIC STEM CELLS” (priority 2004, published 2009).
# “Also recorded” adds a separate entry of the source.
# T1: activin A (Homo sapiens, UniProt P08476)
# T1 sequence (P08476 311-426): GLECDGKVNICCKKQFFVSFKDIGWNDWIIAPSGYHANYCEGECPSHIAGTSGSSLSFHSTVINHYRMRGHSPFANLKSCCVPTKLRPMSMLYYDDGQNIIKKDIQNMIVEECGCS
# Key:
# hES cells [1] = assay: Proliferation assay, 3H thymidine incorporation; assay type: cell-based, human; details: on laminin, 16 hours pulse, n=4
# Procedure: Proliferation assay to quantify rates of proliferation under different culture conditions: Cells were cultured in 6 well plates on laminin in the presence of either FGF2-supplemented CM from feeder layers or activin A, KGF, NIC, or a combination of these 3 factors. Cultures were pulsed with 1 μCi/ml [methyl ^3H] thymidine (specific activity 6.7 Ci/mmol; MP Biomedicals, Irvine Calif.; www.mpbio.com) in newly replenished medium. After 16 hours, cells were harvested and thymidine incorporation into cells was quantified as previously described.^23 Briefly, DNA content was measured fluoremetrically, and incorporation of ^3H thymidine was determined by liquid scintillation counting of trichloracetic acid precipitates of the sonicated cells. Statistical significance of observed differences was determined by analysis of variance and Fischer's protected least significance difference test with a 95% level as the limit of significance using Statview IV (Abacus Concepts, Berkeley Calif.).
# HSF6 cells [2] = assay: Follistatin added to HSF6 cells on mEFs (immunohistochemistry, RT-PCR); assay type: cell-based, human; details: on mEFs with follistatin
# Procedure: (§1) Stem cell culture: hES cell line HSF6 was maintained on mitomycin C treated CF1 mouse feeder layers (mEF) at 37° C., 5% CO2 in DSR medium, which consisted of high glucose DMEM containing knockout serum replacer, glutamine, non-essential amino acids, 0.1 mM β-mercaptoethanol (all from Gibco, Carlsbad, Calif.; www.invitrogen.com) as previously described,^19 or on laminin (20 μg/ml, Chemicon, www.chemicon.com) coated dishes or in DSR containing 50 ng/ml human recombinant Activin A (ACT A), 50 ng/ml human recombinant Keratinocyte Growth Factor (KGF), both from Preprotech Inc. (Rocky Hill N.J.; www.preprotech.com). These concentrations were determined from previous experiments with human fetal pancreatic cell culture.^14, 20 In some experiments, 10 ng/ml human recombinant Bone Morphogenetic Protein 4 (BMP-4; R&D Systems Minneapolis, Minn. www.RnDSystems.com) was used to replace ACT A, and 0.4 μg/ml follistatin (R&D Systems) was added to ES cells grown on mEFs, sufficient to neutralize 50 ng/ml Act A according to the manufacturer's directions. Medium was changed every day on cells grown on mEFs and every other day, on cells grown on laminin with the growth factors. Cells were passaged weekly at 1:3 or 1:4 dilution.
# In some experiments, 10 ng/ml human recombinant Bone Morphogenetic Protein 4 (BMP-4; R&D Systems Minneapolis, Minn. www.RnDSystems.com) was used to replace activin A, and 2 μg/ml recombinant mouse FS-288 follistatin (R&D Systems) was added to ES cells grown on mEFs, sufficient to neutralize 50 ng/ml activin A according to manufacturer's directions. Medium was changed every day on cells grown on mEFs or in CM and every other day, on cells grown on laminin with the growth factors. Cells were passaged weekly at 1:3 or 1:4 dilution by gentle treatment with 1 mg/ml Collagenase IV (Gibco BRL) for 5 minutes, followed by scraping.
# Immunohistochemistry: Stem cell cultures were grown on coverslips coated with mEFs or laminin fixed with 4% paraformaldehyde and stained. Protein expression of the stem cell markers TRA-1-60 and Oct-4 was analyzed by immunohistochemistry using primary mouse anti-TRA-1-60 (Chemicon) and rabbit anti-OCT-4 antiserum (a generous gift from Dr Hans Scholer, U Penn). Control slides were incubated with mouse IgM and rabbit IgG. […]
# Alternatively, hES cell cultures were grown on coverslips coated with mEFs or laminin, fixed with 4% paraformaldehyde and immunostained as previously described.^4 Protein expression of the stem cell markers TRA-1-60, SSEA-4 and Oct-4 was analyzed using primary mouse anti-TRA-1-60 IgM (Chemicon) mouse anti-SSEA-4 IgG3 (DSHB, U of Iowa, Iowa City, Iowa), and rabbit anti-Oct-4 antiserum (a generous gift from Dr Hans Scholer, U Penn). […]
# activin A = biological target: T1, activin A; details: cited from earlier work
# [3] = test system: members of the BMP family; details: cited from earlier work
# TGFβ = details: cited from earlier work
# hES cells [4] = assay: Semi-quantitative RT-PCR of stem cell markers in hES cells grown on laminin; assay type: cell-based, human; details: 1 week for NK and BMP-4 (10 ng/ml, replacing activin A)
# Procedure: as §1
# (§2) Alternatively, hES cell line HSF6 was maintained on mitomycin C treated CF1 mouse feeder layers (mEF) at 37° C., 5% CO2 in DSR medium as previously described^4. […]
# HSF6 cells [5] = assay: Flow cytometric analysis of TRA-1-60 cell-surface antigen expression; assay type: cell-based, human; details: activin removed from the culture for 1 week (NIC+KGF remain)
# Procedure: (§3) Alternatively, hES cell line HSF6 was maintained on mitomycin C treated CF1 mouse feeder layers (mEF) at 37° C., 5% CO2 in DSR medium as previously described^4. For the experiments described here, passage 43 hES cells were cultured on laminin (20 μg/ml, Chemicon, www.chemicon.com) coated dishes in the presence of conditioned medium from mEFs (CM) supplemented with 10 ng/ml basic fibroblast growth factor (FGF2; Preprotech Inc. Rocky Hill N.J.; www.preprotech.com), or on laminin in DSR medium containing 50 ng/ml human recombinant activin A, 50 ng/ml human recombinant KGF, both from Preprotech, and 10 mM Nicotinamide (NIC; Sigma Corp, St Louis Mo.).
# Flow cytometric analysis: Flow cytometry was used to quantify undifferentiated cells under different culture conditions. Cells were harvested using a 60 minute collagenase treatment followed by shearing into a single cell suspensions and filtering using a 70 micron cell filter. Single cells from each condition were labeled with mouse anti TRA-1-60 or mouse IgM (for controls) and FITC-conjugated donkey anti-mouse IgM (Jackson Immunoresearch). Cells were analyzed using a Becton Dickinson FACScan, and cell-surface antigen expression quantitated using CellQuest software.
# HSF6 cells [6] = assay: Immunohistochemistry of stem cell markers in hES cells grown on laminin; assay type: cell-based, human; details: NK and A for 1 week
# Procedure: as §1, §2
# hES cell line HSF6 = assay: Long-term feeder-free culture and passaging in the undifferentiated state; assay type: cell-based, human
# Procedure: as §1
# as §3, with “Mo.). […]” for “Mo.).”
# Smad2 = assay: Western blotting for phosphorylated Smad2; assay type: cell-based, human; details: HSF6 cells grown in the presence of Activin A
# Procedure: Western blotting: Western blotting was used for phosphorylated Smad2, and was performed on lysates of HSF6 cells as previously described.^4 Cells cultured in the presence of activin A were lysed in detergent containing buffer supplemented with vanadate (10 μM) and microcystin (1 μM) and first blotted with phospho-Smad2 (ser465/467) antibody (Cell Signaling, cellsignal.com). Blots were then stripped and reprobed with Smad2 antibody (Cell Signaling).
molecule,measurement,setting,value
"NC(=O)c1cccnc1 [NIC, nicotinamide, reference compound]",proliferation rate (3H thymidine incorporation),hES cells [1],intermediate
follistatin,"expression of oct-4 and nanog, RT-PCR",HSF6 cells [2]; 1 week,absent (nanog) or markedly diminished (oct-4)
same,staining for TRA-1-60 and Oct-4 (immunohistochemistry),HSF6 cells [2]; 1 week,"lost staining for TRA-1-60 (cytoplasmic), with reduced staining for Oct-4"
same,"expression of oct-4 and nanog, RT-PCR",HSF6 cells [2]; 2 weeks,completely lost
same,staining for Oct-4 (immunohistochemistry),HSF6 cells [2]; 2 weeks,Oct-4 immunoreactivity had completely disappeared
same,affinity for activin A,activin A,extremely high affinity
same,affinity for members of the BMP family,[3],lower affinity
same,binding to TGFβ,TGFβ,does not bind
"BMP-4: human recombinant Bone Morphogenetic Protein 4, another TGFβ family member, used to replace activin A (protein, UniProt P12644 293-408, looked up) Bone morphogenetic protein 4: SPKHHSQRARKKNKNCRRHSLYVDFSDVGWNDWIVAPPGYQAFYCHGDCPFPLADHLNSTNHAIVQTLVNSVNSSIPKACCVPTELSAISMLYLDEYDKVVLKNYQEMVVEGCGCR","expression of stem cell markers oct-4, nanog (telomerase), RT-PCR",hES cells [4],"loss of expression for nanog, oct-4, and telomerase; also recorded: complete loss of expression for nanog and oct-4"
"Activin A: human recombinant Activin A, TGFβ family member; homodimer of inhibin beta-A chain (protein) GLECDGKVNICCKKQFFVSFKDIGWNDWIIAPSGYHANYCEGECPSHIAGTSGSSLSFHSTVINHYRMRGHSPFANLKSCCVPTKLRPMSMLYYDDGQNIIKKDIQNMIVEECGCS",percentage of cells expressing TRA-1-60 after removal of activin,HSF6 cells [5],3.9%
same,proliferation rate (3H thymidine incorporation),hES cells [1],significantly reduced
same,staining for TRA-1-60 and Oct-4 / phenotype (immunohistochemistry),HSF6 cells [6],no change in phenotype
same,concentration optimal to maintain the cells in an undifferentiated state,"hES cell line HSF6; dose response at 5, 50 and 100 ng/ml",50 ng/mL
same,continued growth and passaging,hES cell line HSF6; on laminin,could not be passaged further
same,passages of continuous growth in the undifferentiated state,"hES cell line HSF6; on laminin, without feeder layers, conditioned medium or STAT3 activation",at least 10 passages
same,Smad2 phosphorylation,Smad2,showing phospho-Smad 2
